In patent US5449783A, “Diphenylthiazole derivative” (Hisamitsu Pharmaceutical Co., Inc., priority 1993, dated 1995):

What was measured:
[1] = system: carrageenin-induced paw edema; test: Rat carrageenin-induced paw edema experiment A (oral); type: in vivo, Male Wistar rats; conditions: 10 mg/kg, 1 hour before carrageenin, 3 hours after induction
Procedure: Rat (carrageenin-induced paw edema experiment A)
Male Wistar rats weighing 140 to 160 g were divided into groups each comprising 8 animals.
0.1 ml of 1% carrageenin (PICNIN A, mfd. by Zushi Kagaku K.K.) was subcutaneously injected into the right hind paw of each rat and the edema thus induced was measured with the lapse of time by using a device for measuring foot edema. A test compound was suspended in a 0.5% CMC solution and orally administered to the rat 1 hour before the injection of carrageenin. The results expressed in the inhibition ratio (average) of each test group to the control group, to which no compound had been orally administered, 3 hours after the induction of the reaction are given in Table 2.

[2] = system: carrageenin-induced paw edema; test: Rat carrageenin-induced paw edema experiment B (intravenous); type: in vivo, Male Wistar rats; conditions: 1 mg/kg, immediately before carrageenin, 3 hours after induction
Procedure: Rat (carrageenin-induced paw edema experiment B)
0.1 ml of 1% carrageenin (PICNIN A, mfd. by Zushi Kagaku K.K.) was subcutaneously injected into the right hind paw of each rat and the edema thus induced was measured with the lapse of time by using a device for measuring foot edema. A test compound was suspended in a 60% N,N-dimethylformamide solution in physiological saline and intravenously injected to the rat immediately before the injection of carrageenin.

[3] = system: carrageenin-induced paw edema; test: Rat carrageenin-induced paw edema experiment C (injected together with carrageenin into the paw); type: in vivo, Male Wistar rats; conditions: 3 hours after induction
Procedure: Rat (carrageenin-induced paw edema experiment C)
Male Wistar rats weighing 160 to 170 g were divided into groups each comprising 7 animals.
0.1 ml of 1% carrageenin (PICNIN A, mfd. by Zushi Kagaku K.K.) containing a test compound was subcutaneously injected into the right hind paw of each rat and the edema thus induced was measured with the lapse of time by using a device for measuring foot edema.

[4] = system: adjuvant arthritis (edema of the hind paw); test: Rat adjuvant arthritis experiment; type: in vivo, male Wistar rat; conditions: oral, 10 mg/kg once a day for 7 days
Procedure: (Rat adjuvant arthritis experiment)
0.1 ml of 6 mg/ml Mycobacterium butyricum suspension in liquid paraffin was intracutaneously injected into the tail root of each male Wistar rat weighing about 200 g. 20 days thereafter, rats clearly suffering from arthritis in the hind paw were selected and divided into groups each comprising 7 animals.
A test compound was orally administered in a dose as specified below once a day for 7 days. Then the effect of the test compound on the adjuvant arthritis was examined by using an inhibition ratio on the edema of the hind paw as an indicator. The inhibition ratio was calculated according to the following equation.

[5] = system: acetic acid-induced writhing; test: Mouse acetic acid-induced writhing experiment; type: in vivo, Male ddy mice; conditions: oral, 20 mg/kg, 30 minutes before 0.6% acetic acid; writhing counted for 10 minutes
Procedure: (Mouse acetic acid-induced writhing experiment)
Male ddy mice weighing about 23 g were divided into groups each comprising 7 to 9 animals.
30 minutes after a test compound was orally administered, a 0.6% acetic acid solution in physiological saline was intraperitoneally administered in a dose of 0.1 ml per 10 g of the body weight. From 5 minutes after the intraperitoneal administration, the frequency of writhing was counted for 10 minutes to determine the inhibition ratio by comparing with the frequency of writhing in the control group.

prostaglandin synthetase = molecular target: T1, prostaglandin synthetase (Ovis aries, UniProt P05979); test: Effect of inhibiting biosynthesis of prostaglandin E2; type: biochemical, sheep; conditions: 10^-7; 10 minutes incubation
T1 construct: originating in sheep seminal vesicle; from tissue; host or cells: sheep seminal vesicle
T1 sequence (P05979 25-600): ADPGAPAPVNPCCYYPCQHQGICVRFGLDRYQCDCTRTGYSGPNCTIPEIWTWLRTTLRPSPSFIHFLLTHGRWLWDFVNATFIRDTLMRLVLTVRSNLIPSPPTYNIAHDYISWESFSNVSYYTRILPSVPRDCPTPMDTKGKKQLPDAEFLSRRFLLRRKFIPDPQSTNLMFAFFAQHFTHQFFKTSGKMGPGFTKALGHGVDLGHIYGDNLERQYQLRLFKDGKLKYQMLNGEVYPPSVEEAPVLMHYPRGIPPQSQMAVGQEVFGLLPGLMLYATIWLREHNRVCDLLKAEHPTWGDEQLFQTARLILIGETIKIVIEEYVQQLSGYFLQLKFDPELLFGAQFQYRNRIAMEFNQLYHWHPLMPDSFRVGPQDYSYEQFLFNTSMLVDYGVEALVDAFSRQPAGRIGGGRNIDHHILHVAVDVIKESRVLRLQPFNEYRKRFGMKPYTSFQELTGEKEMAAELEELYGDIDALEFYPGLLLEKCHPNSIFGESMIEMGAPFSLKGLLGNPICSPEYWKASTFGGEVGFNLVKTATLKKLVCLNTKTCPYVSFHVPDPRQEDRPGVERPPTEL
Procedure: (Effect of inhibiting biosynthesis of prostaglandin E2)
To a tris buffer solution containing 50 mM of glutathione and 50 mM of epinephrine were added prostaglandin synthetase (originating in sheep seminal vesicle) and a test drug dissolved in DMSO and incubated for 10 minutes. Then the reaction was ceased with 1 N hydrochloric acid under ice-cooling and the reaction mixture was extracted with ethyl ether. Then the extract was solidified by drying with nitrogen gas, dissolved in ethanol and developed on a TLC with a developer. Then the aimed part was scraped up and the radioactivity was measured with a liquid scintillation counter.

biosynthesis of 5-HETE = test: Effect of inhibiting biosynthesis of 5-HETE in neutrophiles; type: cell-based, Hartley guinea pigs; conditions: 10^-6; A 23187, 14C-arachidonic acid
Procedure: (Effect of inhibiting biosynthesis of 5-HETE)
Hartley guinea pigs weighing 300 to 500 g were used.
0.2% oyster glycogen was intraperitoneally administered to each guinea pig and, after 16 hours, neutrophiles of the animal were harvested. […] After ceasing the reaction with 1N hydrochloric acid under ice-cooling, the reaction mixture was extracted with ethyl acetate. Then the extract was solidified by drying with nitrogen gas, dissolved in ethanol and developed on a TLC with a developer. Then the aimed part was scraped up and the radioactivity was measured with a liquid scintillation counter.

platelet aggregation = conditions: as stated by prior reference A; cited from earlier work
[6] = as stated by prior reference A; cited from earlier work
[7] = as stated by prior reference A; cited from earlier work; remark: listed apart in the source

Compound | Inhibition ratio [1] [%] | Inhibition ratio [2] [%] | Inhibition ratio ([3]; 0.003 mg/kg) [%] | Inhibition ratio [4] [%] | Inhibition ratio [5] [%] | Inhibition ratio (prostaglandin synthetase) [%] | Inhibition ratio (biosynthesis of 5-HETE) [%] | Inhibition ratio ([3]; 0.03 mg/kg) [%] | platelet aggregation inhibiting effect (in words) (platelet aggregation) | hypocholesterolemic effect (in words) [6] | antiinflammatory and analgesic effects (in words) [7]
O=S(=O)(Nc1nc(-c2ccccc2)c(-c2ccc(F)cc2)s1)C(F)(F)F [Ex. 37] | 56.2 | 46.4 | 49.8 | 44.9 | 18.1 | 43.9 | 48.7 | – | – | – | –
O=S(=O)(Nc1nc(-c2ccccc2)c(-c2ccccc2)s1)C(F)(F)F [Ex. 1, 2-trifluoromethanesulfonylamino-4,5-diphenylthlazole] | 44.9 | 41.3 | 44.2 | 36.6 | 24.6 | 45.5 | 40.5 | – | – | – | –
COc1ccc2c(c1)c(CC(=O)O)c(C)n2C(=O)c1ccc(Cl)cc1 [indomethacin, reference compound] | – | 47.4 | – | – | – | – | – | 44.7 | – | – | –
CNc1nc(-c2ccccc2)c(-c2ccccc2)s1 [2-methylamino-4,5-diphenyl-thiazole] | – | – | – | – | – | – | – | – | platelet aggregation inhibiting effect | hypocholesterolemic effect | weak or scarcely any
CC(=O)N(C)c1nc(-c2ccccc2)c(-c2ccccc2)s1 [2-(N-methyl-N-acetyl)amino-4,5-diphenylthiazole] | – | – | – | – | – | – | – | – | platelet aggregation inhibiting effect | hypocholesterolemic effect | weak or scarcely any
COc1ccc(-c2sc(NS(=O)(=O)C(F)(F)F)nc2-c2ccccc2)cc1 [Ex. 32] | 52.3 | 48.1 | 50.4 | 34.6 | 28.6 | 52.2 | 44.8 | – | – | – | –
CC(Cc1ccc(O)c(O)c1)C(C)Cc1ccc(O)c(O)c1 (centres unmarked) [NDGA, nordihydroguairetic acid, reference compound] | – | – | – | – | – | – | 43.0 | – | – | – | –
O=[N+]([O-])c1ccc(-c2sc(NS(=O)(=O)C(F)(F)F)nc2-c2ccccc2)cc1 [Ex. 17] | 23.9 | 36.6 | 37.1 | 35.3 | 36.3 | 48.1 | 47.3 | – | – | – | –
COc1ccc(-c2nc(NS(=O)(=O)C(F)(F)F)sc2-c2ccccc2)cc1 [Ex. 10] | 46.8 | 52.8 | 50.7 | 45.6 | 46.1 | 57.2 | 45.1 | – | – | – | –
c1ccc(-c2nc(N3CCOCC3)sc2-c2ccccc2)cc1 [2-morpholino-4,5-diphenylthiazole] | – | – | – | – | – | – | – | – | platelet aggregation inhibiting effect | hypocholesterolemic effect | weak or scarcely any
